The source of these data is the NIST ThermoML archive (doi:10.1016/j.jct.2011.06.007).

± gives the expanded uncertainty stated by the source.

The conditions of data set [1]: for mass density: 101.33 kPa, Liquid, Vibrating tube method.
Data set [2] is described as follows: Molar enthalpy of transition or fusion. Particulars: Crystal; DSC.
A short description of data set [3]: activity coefficient (dimensionless); of the first substance listed, at infinite dilution; xn = mol fraction of the nth substance listed. The following applies: 101 kPa, Liquid, Chromatography, x1 = 0.

As usually defined, the mass density is mass per unit of volume. For `CCCC[N+]1(C)CCCC1.N#C[B-](C#N)(C#N)C#N` [1-butyl-1-methylpyrrolidinium tetracyanoborate], the mass density in data set [1] (318.15 K) came to 962.29 ± 1 kg/m3; in data set [1] (328.15 K), 955.61 ± 1 kg/m3; in data set [1] (338.15 K), 949 ± 1 kg/m3; in data set [1] (348.15 K), 942.32 ± 1 kg/m3; in data set [1] (358.15 K) it was 935.59 ± 1 kg/m3; in data set [1] (368.15 K) it was 928.86 ± 1 kg/m3. The Normal melting temperature in data set [1] (Crystal, DTA) was 17.30 ± 0.39 °C. Moreover, the “Molar enthalpy of transition or fusion” value in data set [2] came out at 8.51 ± 0.184 kcal/mol.
Regarding `O` [water] + CCCC[N+]1(C)CCCC1.N#C[B-](C#N)(C#N)C#N, the activity coefficient in data set [3] (318.15 K) came to 2.15 ± 0.15; in data set [3] (328.15 K), 1.87 ± 0.13; in data set [3] (338.15 K), 1.73 ± 0.12; in data set [3] (348.15 K) it was 1.58 ± 0.1; in data set [3] (358.15 K), 1.39 ± 0.09; in data set [3] (368.15 K), 1.28 ± 0.08.
Take `C#CCCCC` [1-hexyne] + CCCC[N+]1(C)CCCC1.N#C[B-](C#N)(C#N)C#N: the activity coefficient came out at 2.53 ± 0.17 in data set [3] (318.15 K); 2.56 ± 0.17 in data set [3] (328.15 K); 2.58 ± 0.18 in data set [3] (338.15 K); 2.63 ± 0.18 in data set [3] (348.15 K); 2.63 ± 0.18 in data set [3] (358.15 K); 2.68 ± 0.18 in data set [3] (368.15 K).
As for `C=CCCC` [1-pentene] + CCCC[N+]1(C)CCCC1.N#C[B-](C#N)(C#N)C#N, the activity coefficient in data set [3] (318.15 K) stood at 5.58 ± 0.38; in data set [3] (328.15 K), 5.32 ± 0.36; in data set [3] (338.15 K), 5.3 ± 0.36; in data set [3] (348.15 K), 5.24 ± 0.36; in data set [3] (358.15 K) it was 5.01 ± 0.34; in data set [3] (368.15 K), 5.02 ± 0.34.
Consider `CCc1ccccc1` [ethylbenzene] + CCCC[N+]1(C)CCCC1.N#C[B-](C#N)(C#N)C#N, for which the activity coefficient in data set [3] (318.15 K) came to 1.56 ± 0.1; in data set [3] (328.15 K), 1.58 ± 0.1; in data set [3] (338.15 K) it was 1.6 ± 0.11; in data set [3] (348.15 K) it was 1.64 ± 0.11; in data set [3] (358.15 K), 1.66 ± 0.11; in data set [3] (368.15 K), 1.69 ± 0.11.
As for `CCC(C)CC` [3-methylpentane] + CCCC[N+]1(C)CCCC1.N#C[B-](C#N)(C#N)C#N, the activity coefficient in data set [3] (318.15 K) came to 14.9 ± 1; in data set [3] (328.15 K), 13.8 ± 0.9; in data set [3] (338.15 K) it was 13 ± 0.9; in data set [3] (348.15 K) it was 12.6 ± 0.9; in data set [3] (358.15 K) it was 11.8 ± 0.8; in data set [3] (368.15 K), 11.2 ± 0.8.
With `C=CCCCCCCCC` [1-decene] + CCCC[N+]1(C)CCCC1.N#C[B-](C#N)(C#N)C#N, the activity coefficient was found to be 29.7 ± 2 in data set [3] (318.15 K); 28.3 ± 1.9 in data set [3] (328.15 K); 27.1 ± 1.9 in data set [3] (338.15 K); 26.1 ± 1.8 in data set [3] (348.15 K); 23.5 ± 1.6 in data set [3] (358.15 K); 22.8 ± 1.6 in data set [3] (368.15 K).
